Read-outs that look alike come from different tables or passages of the source.
How the values were obtained:
[1] = system: mechanical hyperalgesia in a neuropathic pain model (rat Chung model); assay: Analgesic effect: von Frey filament test using rat Chung model, transdermal administration; format: in vivo; settings: 0.1% formulation applied transdermally to plantar surface of left hindlimb once a day for 2 weeks; measured on the day after last administration; pre-administration value = 100%
Protocol: The present test is to measure the analgesic effect based on the improvement level of the mechanical hyperalgesia in a neuropathic pain model as the indicator by transdermally administering the compound of the present invention and was carried out in accordance with the method of Kim and Chung [Pain, 50, 355-363 (1992)] or the method of Tsuda et al. [Nature, 424, 778-783, 2003].
Specifically, using Jcl: Wistar male rat (7 to 9 rats/group, 5 weeks of age at the time of surgery), spinal nerves were injured to induce hyperalgesia and the withdrawal threshold was measured using the von Frey filament. In the surgery, under Pentobarbital anesthesia, the left L5 spinal nerve was exposed, ligated near the spinal cord using a silk suture (5-0) and transected just peripheral to the ligation. After suturing the incision and keeping the rats for 2 weeks, the rats were subjected to the von Frey filament test. The measurement of the mechanical hyperalgesia was carried out by applying von Frey filaments (1.0, 2.0, 4.0, 8.0, 15.0 g) to the plantar surface of the left hindlimb, and the filament intensity at which 50% or higher withdrawal behavior was observed was defined as the withdrawal threshold.
After dissolving the test compounds in a mixture of Tween 80 and ethanol, the obtained solution was mixed with a hydrophilic ointment to prepare a formulation having a concentration of 0.1%. The withdrawal threshold before administering the test compound was measured to define the pre-administration value (100%). Thereafter, once a day, for 2 weeks, the formulation having a concentration of 0.1% was transdermally administered (applied) to the plantar surface of the left hindlimb, the von Frey filament test was carried out on the following day of the last administration to measure the post-administration value. Further, the same formulation as above but free of the test compound was prepared as a vehicle control and the same test was carried out.
The analgesic effect is a relative ratio when a test compound pre-administration value calculated using the following numerical formula is 100%. The pre-administration withdrawal threshold was 3.3±0.1 g (119 cases) (the withdrawal threshold of sham-operated rat was 10 to 15 g). %=(test compound post-administration withdrawal threshold value/pre-administration withdrawal threshold value)×100

TRPV1 = biological target: T1, TRPV1 (Rattus norvegicus, UniProt O35433); assay: TRPV1 agonist activity by intracellular calcium level (FLIPR method); format: cell-based; settings: rat dorsal root ganglion primary culture cells
T1 construct: using cultured rat dorsal root ganglion cells which express TRPV1 abundantly; endogenous in cells; host or cells: primary culture of dorsal root ganglion cells from 7 day old Wistar rat
T1 sequence (O35433 whole entry): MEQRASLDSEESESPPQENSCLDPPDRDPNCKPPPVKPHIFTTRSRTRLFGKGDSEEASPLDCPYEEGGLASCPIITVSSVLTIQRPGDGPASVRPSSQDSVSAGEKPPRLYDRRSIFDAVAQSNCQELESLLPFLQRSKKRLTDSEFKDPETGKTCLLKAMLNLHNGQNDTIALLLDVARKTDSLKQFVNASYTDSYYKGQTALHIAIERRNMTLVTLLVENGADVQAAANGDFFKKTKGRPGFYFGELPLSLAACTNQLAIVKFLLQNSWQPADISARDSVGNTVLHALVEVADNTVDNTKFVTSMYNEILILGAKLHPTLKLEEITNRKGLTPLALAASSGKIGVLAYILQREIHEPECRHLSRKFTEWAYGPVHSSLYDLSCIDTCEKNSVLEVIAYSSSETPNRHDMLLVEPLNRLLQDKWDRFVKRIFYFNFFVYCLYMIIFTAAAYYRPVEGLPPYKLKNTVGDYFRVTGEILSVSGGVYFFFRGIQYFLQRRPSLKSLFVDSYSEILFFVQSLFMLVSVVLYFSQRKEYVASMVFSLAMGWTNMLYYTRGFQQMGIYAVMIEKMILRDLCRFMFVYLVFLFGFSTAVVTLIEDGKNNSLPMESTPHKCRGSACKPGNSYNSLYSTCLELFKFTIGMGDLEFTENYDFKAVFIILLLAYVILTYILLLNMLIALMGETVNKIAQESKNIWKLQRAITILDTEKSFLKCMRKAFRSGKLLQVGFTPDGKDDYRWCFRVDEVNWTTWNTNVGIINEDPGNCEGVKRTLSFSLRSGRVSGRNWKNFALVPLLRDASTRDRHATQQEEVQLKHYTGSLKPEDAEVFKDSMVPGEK
From the text: The test is to measure the elevation of intracellular calcium level as the indicator of TRPV1 agonist activity of a test compound using cultured rat dorsal root ganglion cells which express TRPV1 abundantly, and carried out in accordance with the method of Jerman et al. (Jerman, J. C. et al., Comparison of effects of anandamide at recombinant and endogenous rat vanilloid receptors. Br J Anaesth, 2002. 89(6): p. 882-7). More specifically, the dorsal root ganglion was removed from a 7 day old Wistar rat, and the cells were isolated by collagenase-trypsin treatment. Subsequently, the primary cells was cultured in a CO2 incubator controlled at 5% CO2 and 37° C. for 2 days. The culture medium used was Neurobasal™ medium supplemented with L-glutamine, nerve growth factor, N-2-Supplement, Penicillin-Streptomycin, 5-Fluoro-2′-deoxyuridine (culture day 1 only) were added to.
FLIPR^TETRA system (Molecular Devices Corp.) was used to measure the intracellular calcium concentration. As an indicator of TRPV1 agonistic activity, the fluorescence intensity elevation was monitored when a test compound is applied to the rat dorsal root ganglion primary culture cells loaded with a calcium-sensitive fluorescent reagent.

[2] = system: eye of a Std: ddy male mouse; assay: Pungency: eye-wiping test; format: in vivo; settings: 10 μg/ml, one drop to mouse eye, counted every minute up to 5 minutes
Protocol: The test is to examine the pungency of the compound of the present invention, and was carried out in accordance with the method by Jancso et al. [Acta. Physiol. Acad. Sci. Hung., 19, 113-131 (1961)] and the method by Szallasi et al. [Brit. J. Pharmacol., 119, 283-290 (1996)]. Specifically, the test compounds were dissolved in physiological saline containing 5% Tween 80 and 5% ethanol to give each (10 or 30 μg/ml) concentration, and one drop of the obtained solution was applied to the eye of a Std: ddy male mouse (5 mice per group, body weight 20 to 30 g) and the number of the protective wiping behavior with the front paws was counted every minute up to 5 minutes after the administration. Then, the average counts in each minute was calculated and the maximum number was defined as the representative value. Further, as vehicle control, the same test was carried out using physiological saline containing 5% Tween 80 and 5% ethanol.

[3] = system: mechanical hyperalgesia in a neuropathic pain model (rat Chung model); assay: Analgesic effect in combination with Pregabalin: von Frey filament test using rat Chung model, i.pl. administration; format: in vivo; settings: for % to pre-administration value: (1) Test compound post-i. pl. administration value: 50 μl of 0.1% (W/V) solution intraplantar to left hindlimb, measured on the following day, test compound alone; for % to pre-administration value: (2) Pregabalin post-oral administration value (Test compound administered on the day before): test compound i.pl. the day before plus Pregabalin 10 mg/kg orally, combined effect
Protocol: The study was conducted using the same methods and evaluation criteria as in Test Example 1 with the exception of the administration route of the test compounds (see Test Example 1).
Using the von Frey filaments the test compound pre-administration values (pressure withdrawal threshold) were measured. Subsequently, 50 μl of a solution containing a test compound or vehicle control was intraplantarly injected to the left hindlimb using a microsyringe (intraplantar injection: i. pl. administration), and on the following day the withdrawal threshold was measured (effect of the test compound alone). Thereafter, 10 mg/kg of Pregabalin was orally administered and an hour later the withdrawal threshold was measured (combined effect).
Pregabalin was dissolved in distilled water. Physiological saline containing Tween 80 and ethanol was used as the vehicle control for the i. pl. administration.
The analgesic effect is a relative ratio when a pre-administration value calculated using the following numerical formula is 100%.

[4] = system: micronucleus-containing immature erythrocyte; assay: Bone marrow micronucleus test; format: in vivo, rat; settings: subcutaneous, twice every 24 hours, Crl: CD male rats; dosage at which fatal cases start occurring and dosages up thereto
Protocol: Each compound of Examples 2, 16 and 37 dissolved in physiological saline containing ethanol and Tween 80 was subcutaneously administered to Crl: CD male rats twice every 24 hours and micronucleus inducing potential was evaluated.

[5] = read-out: Value (%) when fluorescence intensity for capsaicin (1 μM) is 100%, 1 μM
[6] = 1 μM, read-out: Value (%) when fluorescence intensity for capsaicin (1 μM) is 100%

`COc1cc(CNC(=O)C2CCN(C(=O)O[C@H]3CCCC[C@H]3C)CC2)ccc1O` [Example 38, (1S,2R)-2-methylcyclohexyl 4-(4-hydroxy-3-methoxybenzylcarbamoyl)-piperidine-1-carboxylate] was tested, and the “% to pre-administration value (withdrawal threshold)” value [1] was 243% and the Emax at 1 µM (TRPV1; [5]) was 97%.

In the case of `COc1cc(CNC(=O)CCCC/C=C/C(C)C)ccc1O` [Capsaicin, (E)-8-methyl-N-vanillyl-6-nonenamide, reference compound], the “% to pre-administration value (withdrawal threshold)” value [1] is reported as 228%, the “Value (%) when fluorescence intensity for capsaicin (1 μM) is 100%” value (shortened to “Value (%) when fluorescence intensity”) (TRPV1; 1 μM) is reported as 100% and the “Representative value of the counts of protective wiping behavior (Maximum counts, counts/min)” value [2] is reported as 20.0 counts/min. For the same compound, the “Representative value of the counts of protective wiping behavior (Maximum counts, counts/min)” value ([2]; listed as capsaicin) was “vigorous wiping behavior was observed”.

With `CC(C)C[C@H](CN)CC(=O)O` [Pregabalin, reference compound] the “% to pre-administration value: (2) Pregabalin post-oral administration value (vehicle control administered on the day before)” value ([3]; vehicle i.pl. the day before, Pregabalin 10 mg/kg orally, measured an hour later, Pregabalin alone) was 125%.

For `COc1cc(CNC(=O)C2CCN(C(=O)O[C@H]3CCC[C@H](C)C3)CC2)ccc1O` [Example 36, (1S,3S)-3-methylcyclohexyl 4-(4-hydroxy-3-methoxybenzylcarbamoyl)-piperidine-1-carboxylate], the “% to pre-administration value (withdrawal threshold)” value [1] was 209% and the “Value (%) when fluorescence intensity” value (TRPV1; 1 μM) was 104%.

In the case of `COc1cc(CNC(=O)C2CCN(C(=O)O[C@@H]3CCCC[C@@H]3C)CC2)ccc1O` [Example 37, (1R,2S)-2-methylcyclohexyl 4-(4-hydroxy-3-methoxybenzylcarbamoyl)-piperidine-1-carboxylate], the “% to pre-administration value (withdrawal threshold)” value [1] is reported as 236%, the “% to pre-administration value: (1) Test compound post-i. pl. administration value” [3] is reported as 169% and the “% to pre-administration value: (2) Pregabalin post-oral administration value (Test compound administered on the day before)” value ([3]; measured an hour later) is reported as 219%. The micronucleus inducing potential [4] was “no micronucleus inducing potential” and the “Value (%) when fluorescence intensity” value (TRPV1; 1 μM) was 101%.

In the case of `CC[C@H]1CC[C@H](OC(=O)N2CCC(C(=O)NCc3ccc(O)c(OC)c3)CC2)CC1` [Example 2], the micronucleus inducing potential [4] is reported as “no micronucleus inducing potential” and the Emax at 1 µM (TRPV1; [5]) is reported as 84%.

For `COc1cc(CNC(=O)C2CCN(C(=O)O[C@@H]3CCC[C@@H](C)C3)CC2)ccc1O` [Example 35, (1R,3R)-3-methylcyclohexyl 4-(4-hydroxy-3-methoxybenzylcarbamoyl)-piperidine-1-carboxylate], the “% to pre-administration value (withdrawal threshold)” value [1] was 183% and the Emax at 1 µM (TRPV1; [6]) was 86%.

For `COc1cc(CNC(=O)C2CCN(C(=O)Oc3ccccc3C3CCCC3)CC2)ccc1O` [Example 42], the Emax at 1 µM (TRPV1; [6]) was 72%.

With `CCC1(CC)CCC(OC(=O)N2CCC(C(=O)NCc3ccc(O)c(OC)c3)CC2)CC1` [Example 7] the Emax at 1 µM (TRPV1; [6]) was 90%.

In the case of `COc1cc(CNC(=O)C2CN(C(=O)O[C@H]3C[C@H](C)CC[C@H]3C(C)C)C2)ccc1O` [Example 21], the Emax at 1 µM (TRPV1; [6]) is reported as 85%.

For `CCC1(CC)CCC(OC(=O)N2CC(C(=O)NCc3ccc(O)c(OC)c3)C2)CC1` [Example 14, 4,4-diethylcyclohexyl 3-(4-hydroxy-3-methoxybenzylcarbamoyl)-azetidine-1-carboxylate], the “% to pre-administration value (withdrawal threshold)” value [1] was 241% and the Emax at 1 µM (TRPV1; [6]) was 78%.

`COc1cc(CNC(=O)C2CN(C(=O)O[C@@H]3C[C@H](C)CC[C@H]3C(C)C)C2)ccc1O` [Example 20] gave an Emax at 1 µM (TRPV1; [6]) of 73%.

With `CCC1(CC)CCC(OC(=O)N2CC[C@H](C(=O)NCc3ccc(O)c(OC)c3)C2)CC1` [Example 29] the Emax at 1 µM (TRPV1; [6]) was 83%.

With `COc1cc(CNC(=O)C2CCN(C(=O)OCC3CCCCC3)CC2)ccc1O` [Example 40] the Emax at 1 µM (TRPV1; [6]) was 91%.

Compound `CC[C@H]1CC[C@@H](OC(=O)N2CC[C@@H](C(=O)NCc3ccc(O)c(OC)c3)C2)CC1` [Example 32] has an Emax at 1 µM (TRPV1; [6]) of 78%.

Compound `COc1cc(CNC(=O)C2CCN(C(=O)Oc3ccc(C(C)C)cc3)CC2)ccc1O` [Example 44] has an Emax at 1 µM (TRPV1; [6]) of 83%.

`CC[C@H]1CC[C@@H](OC(=O)N2CC(C(=O)NCc3ccc(O)c(OC)c3)C2)CC1` [Example 15] was tested, and the Emax at 1 µM (TRPV1; [6]) was 83%.

`COc1cc(CNC(=O)C2CN(C(=O)Oc3ccccc3C3CCCC3)C2)ccc1O` [Example 46, 2-cyclopentylphenyl 3-(4-hydroxy-3-methoxybenzylcarbamoyl)-azetidine-1-carboxylate] gave an Emax at 1 µM (TRPV1; [6]) of 68%.

In the case of `COc1cc(CNC(=O)C2CCN(C(=O)O[C@@H]3C[C@H](C)C[C@H](C)C3)CC2)ccc1O` [Example 12], the Emax at 1 µM (TRPV1; [6]) is reported as 92%.

With `COc1cc(CNC(=O)C2CCN(C(=O)O[C@H]3CC[C@H](C)CC3)CC2)ccc1O` [Example 4] the Emax at 1 µM (TRPV1; [6]) was 80%.

Work on `COc1cc(CNC(=O)C2CCN(C(=O)OC3CCCCCC3)CC2)ccc1O` [Example 39] yielded an Emax at 1 µM (TRPV1; [6]) of 91%.

`COc1cc(CNC(=O)C2CCN(C(=O)O[C@H]3CC[C@@H](C(C)(C)C)CC3)CC2)ccc1O` [Example 5] was tested, and the Emax at 1 µM (TRPV1; [6]) was 84%.

With `COc1cc(CNC(=O)C2CN(C(=O)O[C@H]3CCC[C@H](C)C3)C2)ccc1O` [Example 18] the Emax at 1 µM (TRPV1; [6]) was 86%.

For `COc1cc(CNC(=O)C2CN(C(=O)O[C@H]3CC[C@H](C(C)(C)C)CC3)C2)ccc1O` [Example 17], the Emax at 1 µM (TRPV1; [5]) was 82%.

`CC[C@H]1CC[C@@H](OC(=O)N2CCC(C(=O)NCc3ccc(O)c(OC)c3)CC2)CC1` [Example 1, cis-4-ethylcyclohexyl 4-(4-hydroxy-3-methoxybenzylcarbamoyl)-piperidine-1-carboxylate] was tested, and the “% to pre-administration value (withdrawal threshold)” value [1] was 220% and the Emax at 1 µM (TRPV1; [5]) was 87%.

`COc1cc(CNC(=O)C2CCN(C(=O)O[C@@H]3CCC[C@H](C)C3)CC2)ccc1O` [Example 9] showed an Emax at 1 µM (TRPV1; [6]) of 83%.

For `COc1cc(CNC(=O)C2CN(C(=O)O[C@H]3CC[C@@H](C(C)(C)C)CC3)C2)ccc1O` [Example 16], the “% to pre-administration value (withdrawal threshold)” value [1] was 218%, the “% to pre-administration value: (1) Test compound post-i. pl. administration value” [3] was 200% and the “% to pre-administration value: (2) Pregabalin post-oral administration value (Test compound administered on the day before)” value ([3]; measured an hour later) was 223%. The micronucleus inducing potential [4] was “no micronucleus inducing potential” and the Emax at 1 µM (TRPV1; [5]) was 84%.
